Measurements as given in ChEMBL document CHEMBL1201862, “PubChem BioAssay data set” (2004).
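Method: 48-hour compound exposure of cells in 96-well plates, five concentrations, linear interpolation of endpoints. GI50 = concentration required for 50% inhibition of growth.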 Activity calls are given as the source filed them. No stated cut-off is given here; in the data, active = GI50 up to about 1.1 µM and inactive = higher.

How the values were obtained:
Assay in all cases: DTP human tumour cell line panel, 48 h
EKVX = test system: EKVX
HCC 2998 = test system: HCC 2998
NCI-H23 = test system: NCI-H23
IGROV-1 = test system: IGROV-1
HCT-116 = test system: HCT-116
SW-620 = test system: SW-620
SF-295 = test system: SF-295
CCRF-CEM = test system: CCRF-CEM
NCI-H460 = test system: NCI-H460
SF-268 = test system: SF-268
HCT-15 = test system: HCT-15
HOP-62 = test system: HOP-62
UACC-62 = test system: UACC-62
K562 = test system: K562
UO-31 = test system: UO-31
SN12C = test system: SN12C
TK-10 = test system: TK-10

Row | SMILES | GI50 (EKVX) | GI50 (HCC 2998) | GI50 (NCI-H23) | GI50 (IGROV-1) | GI50 (HCT-116) | GI50 (SW-620) | GI50 (SF-295) | GI50 (CCRF-CEM) | GI50 (NCI-H460) | GI50 (SF-268) | GI50 (HCT-15) | GI50 (HOP-62) | GI50 (UACC-62) | GI50 (K562) | GI50 (UO-31) | GI50 (SN12C) | GI50 (TK-10)
1 | CC(C)(C)C1(O)Cc2ccccc2C(=O)O1 (stereo not drawn) | > 100 µM (inactive) | > 100 µM (inactive) | > 100 µM (inactive) | > 100 µM (inactive) | > 100 µM (inactive) | > 100 µM (inactive) | > 100 µM (inactive) | > 100 µM (inactive) | > 100 µM (inactive) | > 100 µM (inactive) | > 100 µM | > 100 µM (inactive) | > 100 µM (inactive) | > 100 µM (inactive) | > 100 µM (inactive) | > 100 µM (inactive) | > 100 µM (inactive)
2 | CCOc1ccc(/N=N/c2ccc3oc(=O)c(C(=O)Nc4ccc(OC)cc4)cc3c2)cc1 | 26.6 µM (inactive) | 10.8 µM (inactive) | 19.7 µM (inactive) | 23.5 µM (inactive) | 11.3 µM (inactive) | 18.5 µM (inactive) | 31.2 µM (inactive) | 2.36 µM (inactive) |  | 9.1 µM (inactive) | 6.12 µM | 21.9 µM (inactive) | 11.7 µM (inactive) | 8.38 µM (inactive) | 5.57 µM (inactive) | 18 µM (inactive) | 17.1 µM (inactive)
3 | CC(=O)Oc1c(Br)ccc2cc(C(Br)Br)c(C(=O)c3ccccc3)nc12 | 22.5 µM (inactive) | 17.9 µM (inactive) | 20 µM (inactive) | 29.1 µM (inactive) | 21.8 µM (inactive) | 22.4 µM (inactive) | 18.7 µM (inactive) |  | 19.9 µM (inactive) | 25.7 µM (inactive) | 22.8 µM | 19.1 µM (inactive) | 20 µM (inactive) | 20.2 µM (inactive) | 19.2 µM (inactive) | 20 µM (inactive) | 17.7 µM (inactive)
4 | O=C(O)CSc1nnc(-c2ccccc2)[nH]1 | > 100 µM (inactive) | > 100 µM (inactive) | > 100 µM (inactive) | > 100 µM (inactive) |  | > 100 µM (inactive) | > 100 µM (inactive) | > 100 µM (inactive) | > 100 µM (inactive) | > 100 µM (inactive) | > 100 µM | > 100 µM (inactive) | > 100 µM (inactive) | > 100 µM (inactive) | > 100 µM (inactive) | > 100 µM (inactive) | > 100 µM (inactive)
5 | COc1ccc(C2(Cl)C(Cl)(C(F)(F)F)C2(Cl)C(F)(F)F)cc1 (stereo not drawn) | 17.5 µM (inactive) | 16.3 µM (inactive) | 14.7 µM (inactive) | 16.5 µM (inactive) | 11.7 µM (inactive) | 15 µM (inactive) | 14.8 µM (inactive) | 3.78 µM (inactive) | 15.9 µM (inactive) | 15.6 µM (inactive) | 14.2 µM | 18.4 µM (inactive) | 13.6 µM (inactive) | 20.5 µM (inactive) | 16 µM (inactive) | 15.8 µM (inactive) | 18.1 µM (inactive)
6 | Cn1c2c(c3ccccc31)CCN(CCCCN1CCN(c3cccc(Cl)c3)CC1)C2=O | 21.5 µM (inactive) |  | 12.6 µM (inactive) | 15.9 µM (inactive) | 6.65 µM (inactive) | 12.6 µM (inactive) | 16.1 µM (inactive) | 9.86 µM (inactive) | 13.4 µM (inactive) | 16.9 µM (inactive) | 11.6 µM | 15.2 µM (inactive) | 11.4 µM (inactive) | 4.45 µM (inactive) | 6.21 µM (inactive) | 12.8 µM (inactive) | 11.5 µM (inactive)
7 | C/C(=N/O)c1sc(-c2nc(C)c(/C(C)=N\O)s2)nc1C | > 100 µM (inactive) | > 100 µM (inactive) | > 100 µM (inactive) | > 100 µM (inactive) | > 100 µM (inactive) | > 100 µM (inactive) | > 100 µM (inactive) | > 100 µM (inactive) |  | > 100 µM (inactive) | > 100 µM |  | > 100 µM (inactive) | > 100 µM (inactive) | > 100 µM (inactive) | > 100 µM (inactive) | 
8 | COc1nc(NC2OCC(OC(C)=O)C(OC(C)=O)C2OC(C)=O)c(/N=C\C=N\c2c(NC3OCC(OC(C)=O)C(OC(C)=O)C3OC(C)=O)nc(OC)n(C)c2=O)c(=O)n1C (stereo not drawn) | > 100 µM (inactive) | > 100 µM (inactive) | > 100 µM (inactive) | > 100 µM (inactive) | > 100 µM (inactive) | > 100 µM (inactive) | > 100 µM (inactive) |  | > 100 µM (inactive) | > 100 µM (inactive) | > 100 µM | > 100 µM (inactive) | > 100 µM (inactive) | > 100 µM (inactive) | > 100 µM (inactive) | > 100 µM (inactive) | > 100 µM (inactive)
